Values joined by “and” are separate entries in the source; they are usually repeats but may differ in a detail not shown here. Equal entries are not always repeated. Where two headings read alike, the source gives them in different places.
Experiments:
[1] = Liposome dextran-FITC de-quenching; settings: read-out: FITC-fluorescence dequenching, half maximal efficacy; liposomes loaded at pH 5.15 with dextran-FITC
Procedure: Liposomes from soy phosphatidyl-choline were prepared in 100 mM acetate pH 5.15 containing 1 mM 4.4 kDa FITC-dextran using standard extrusion protocols yielding vesicles of an average size of 200 nm measured using a particle size analyzer (Nicomp 370, Nicomp, Port Richey, FL, USA). Non-encapsulated FITC-dextran was removed by size exclusion chromatography in a G25 column (Pharmacia) followed by extensive dialysis against 100 mM acetate pH 5.15 in a Floatalyzer with 50 kDa cut-off (Spectrumlabs). To measure fluorescence de-quenching FITC-dextran containing liposomes were diluted in PBS at 20–60 µg/ml, incubated with the respective compounds at room temperature and analysed for fluorescence using a plate reader (TECAN Safire II) with fluorescence TOP measurement settings at excitation of 483/10 nm and emission of 525/15 nm wavelength within 15 min. Control measurements of samples containing PBS, Triton X-100 or the compounds alone were carried out to measure background, maximal readout of the assay and auto-fluorescence of compounds. The data were normalized to the PBS control and background fluorescence was subtracted.

CVB3 [2] = experiment: microbe, parasite or virus in culture; settings: Enterovirus B, CVB3, HeLa, read-out: IC50 (CVB3)
HRV14 [3] = experiment: microbe, parasite or virus in culture; settings: Human rhinovirus sp., HRV14, HeLa, read-out: IC50 (HRV14)
HRV2 [4] = experiment: microbe, parasite or virus in culture; settings: Human rhinovirus sp., HRV2, HeLa, read-out: IC50 (HRV2)
[5] = pKa and log P quoted from the literature; format: physicochemical; settings: pH 7.4
CVB4 [6] = experiment: microbe, parasite or virus in culture; settings: Enterovirus B, CVB4, HeLa, read-out: IC50 (CVB4)
HRV1A [7] = experiment: HRV1A infection of WI-38 human embryonic diploid airway cells; format: cell-based; settings: Human rhinovirus sp.
Procedure: A single cell high-content, image based infection assay was applied to measure infection in high throughput format. Viruses were added to cells in infection medium containing BSA (DMEM containing 25 mM HEPES if used outside of a CO2 cell culture incubator, supplemented with L-glutamine, 30 mM MgCl2 and 0.2% BSA (Sigma) for CV and HRV), or in infection medium containing trypsin-TPCK (DMEM supplemented with L-glutamine and TPCK-trypsin 1 µg/ml (Sigma) for FLU/PR8) and normal growth media for HSV. For all experiments, the multiplicity of infection (moi) was chosen such that approximately 20–40% of the cells were infected at 7 h post infection (pi) (HRV &CV), 8 h pi (FLU) or 18 h pi (HSV). Cells were fixed by adding 1/3 volume of a 16% para-formaldehyde solution, washed with PBS, PBS/25 mM NH4Cl and PBS, permeabilized with 0.2% Triton X-100 (Sigma), washed twice with PBS and blocked with PBS/1% BSA (Fraction V, Sigma). […] Routinely, 9–20 images per well were acquired yielding an average of 5000–12000 cells analysed per well and data point. […] Images were analyzed using a custom written Matlab routine. […]
Compounds were dissolved in dimethyl sulfoxid (DMSO, cell culture grade, Sigma) and added to cells in dilutions indicated with respective concentrations of solvent alone as controls. […] Infection was quantified by immune-staining for dsRNA. […]

HRV1A [8] = experiment: microbe, parasite or virus in culture; settings: Human rhinovirus sp.
[9] = test system: clathrin-coated vesicles (CCV); experiment: Acridine orange measurements in clathrin-coated vesicles; settings: AO red fluorescence assay
Procedure: CCV suspended in assay buffer (10 mM HEPES, pH7, 100 mM KCl, 1 mM EDTA) were incubated with 1 mM ATP, 2 µM AO (Molecular Probes). The ATPase reaction was initiated by adding MgCl2 to 1 mM and fluorescence was determined at 492/540 nm in a plate reader (Tecan, Männedorf, Switzerland) at room temperature after 10 min. BafA1 and samples without MgCl2 were used as controls.

[10] = test system: influenza virus (strain A/Puerto Rico/8/34/H1N1 depicted PR8)
HRV2 [11] = test system: HRV2
CVB3 [12] = test system: CVB3
CVB4 [13] = test system: CVB4
HRV1A [14] = experiment: Full cycle infectivity assay (virus titer, TCID50); format: cell-based, human rhinovirus; settings: full cycle assays; BafA1 (0.5 nM), alone or drug combination
HRV1A, 2, 14, 16 = experiment: Infection assays with the HRV panel in HeLa cells; format: cell-based, human rhinovirus
HRV14 [15] = test system: HRV14
HSV1 [16] = test system: HSV1
[17] = cited from earlier work
HRV16 [18] = experiment: microbe, parasite or virus in culture; settings: Human rhinovirus sp., HRV16, HeLa, read-out: IC50 (HRV16)
CVA21 [19] = test system: CVA21
HRV16 [20] = test system: HRV16
HSV1 [21] = experiment: microbe, parasite or virus in culture; settings: Human alphaherpesvirus 1, read-out: IC50 (HSV1)
rats = settings: cited from earlier work
CVA21 [22] = experiment: microbe, parasite or virus in culture; settings: Coxsackievirus, CVA21, HeLa, read-out: IC50 (CVA21)
[23] = test system: influenza virus (strain A/Puerto Rico/8/34/H1N1 depicted PR8); experiment: microbe, parasite or virus in culture; settings: unidentified influenza virus, A549, read-out: IC50 (PR8)

O=C(Nc1ccc([N+](=O)[O-])cc1Cl)c1cc(Cl)ccc1O [niclosamide, 5-chloro-N-(2-chloro-4-nitrophenyl)-2-hydroxybenzamide, reference compound]
EC50 [1]: 14000 nM | IC50 (CVB3 [2]): > 50000 nM | IC50 (HRV14 [3]): 840 nM | IC50 (HRV2 [4]): 1010 nM | molecules in the deprotonated form [5]: about 99% | IC50 (CVB4 [6]): 3880 nM | IC50 (HRV1A [7]): 1300 nM | IC50 (HRV1A [8]; HeLa, read-out: IC50 (HRV1A)): 1040 nM | activity at 0.03 µM (HRV1A [8]; M-HeLa, 7 h, read-out: HRV1A infection (dsRNA), 0.03 µM): 98% | activity at 0.1 µM (HRV1A [8]; M-HeLa, 7 h, read-out: HRV1A infection (dsRNA), 0.10 µM): 96% | activity at 0.31 µM (HRV1A [8]; M-HeLa, 7 h, read-out: HRV1A infection (dsRNA), 0.31 µM): 90% | activity at 0.93 µM (HRV1A [8]; M-HeLa, 7 h, read-out: HRV1A infection (dsRNA), 0.93 µM): 39% | activity at 2.78 µM (HRV1A [8]; M-HeLa, 7 h, read-out: HRV1A infection (dsRNA), 2.78 µM): 4% | activity at 8.33 µM (HRV1A [8]; M-HeLa, 7 h, read-out: HRV1A infection (dsRNA), 8.33 µM): 5% | activity at 25 µM (HRV1A [8]; M-HeLa, 7 h, read-out: HRV1A infection (dsRNA), 25.00 µM): 4% | pH of isolated CCV [9]: neutralized the pH of CCV in a dose-dependent manner | TI (IC50 / CC50), PR8 [10]: 24.4 | TI (IC50 / CC50), HRV2 (HRV2 [11]): 20.1 | TI (IC50 / CC50), CVB3 (CVB3 [12]): < 0.4 | TI (IC50 / CC50), CVB4 (CVB4 [13]): 5.22 | decrease of virus titers (HRV1A [14]): about five-fold | IC50 (HRV1A, 2, 14, 16; Human rhinovirus sp., HRV1A, HeLa, read-out: IC50 (range over HRV1A, 2, 14, 16)): 840 to 1400 nM | effect of drug washout on the antiviral effect (HRV1A, 2, 14, 16; cells pre-treated 30 min or 18 h, washed with drug-free medium): completely abolished the antiviral effect | time of addition giving half maximal effects (HRV1A, 2, 14, 16; compound added before or post infection of HeLa cells with HRV): ≤ 30 min pi | effect of virus pre-treatment on the inhibition profile (HRV1A, 2, 14, 16; viruses pre-treated at up to 400 µM at 37°C for 30 min): did not affect the inhibition profile | TI (IC50 / CC50), HRV14 (HRV14 [15]): 24.1 | TI (IC50 / CC50), HSV1 (HSV1 [16]): 1.37 | log P ([17]; pH 5.7): 5.63 | log P ([17]; pH 7): 4.48 | IC50 (HRV16 [18]): 1380 nM | TI (IC50 / CC50), CVA21 (CVA21 [19]): 3.06 | TI (IC50 / CC50), HRV16 (HRV16 [20]): 14.7 | IC50 (HSV1 [21]): > 10000 nM and 14800 nM | acute oral toxicity LD50 (rats): > 5 g/kg body weight | IC50 (CVA21 [22]): 6630 nM | IC50 [23]: 830 nM

Source: publication PMC3486884 (PLoS Pathogens, 2012)
